Assay results taken from patent US20240150294A1, “ESTROGEN RECEPTOR ALPHA ANTAGONISTS AND USES THEREOF” (The University of Chicago, priority 2021, published 2024).

What follows are compounds tested against T1, ERα (Homo sapiens, UniProt P03372) (assay: Transcriptional reporter gene assay (estrogen response element-GFP) in MCF7 cells). Conditions: ERE-controlled green fluorescent protein, reduction in fluorescence.
T1 construct: endogenous in cells; host or cells: MCF7
T1 sequence (P03372 1-595): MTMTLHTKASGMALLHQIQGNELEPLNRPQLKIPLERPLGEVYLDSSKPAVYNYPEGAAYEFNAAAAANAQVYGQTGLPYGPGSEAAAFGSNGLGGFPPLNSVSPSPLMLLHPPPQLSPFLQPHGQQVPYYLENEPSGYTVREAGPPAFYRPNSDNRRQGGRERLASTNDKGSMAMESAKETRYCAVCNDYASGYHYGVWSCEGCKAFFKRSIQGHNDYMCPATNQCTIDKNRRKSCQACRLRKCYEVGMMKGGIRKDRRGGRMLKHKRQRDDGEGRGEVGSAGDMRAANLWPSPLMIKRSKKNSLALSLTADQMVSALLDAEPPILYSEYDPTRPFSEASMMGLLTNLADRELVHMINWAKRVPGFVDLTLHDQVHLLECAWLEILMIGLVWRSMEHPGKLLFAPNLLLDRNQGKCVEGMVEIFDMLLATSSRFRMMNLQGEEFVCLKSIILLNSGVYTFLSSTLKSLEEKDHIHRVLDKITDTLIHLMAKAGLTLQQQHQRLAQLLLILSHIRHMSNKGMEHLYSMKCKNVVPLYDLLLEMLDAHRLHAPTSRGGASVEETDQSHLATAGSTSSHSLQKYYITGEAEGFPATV
Format: cell-based
Experimental: The reduction in fluorescence was measured and the IC50 value (nM) was determined for various compounds of formula (I) in comparison to known antagonists.

Compound | IC50 [nM]
CC1CCN(CCOc2ccc(C3c4ccc(O)cc4CC4(CC4)N3C(=O)c3ccccc3)cc2)C1 (mixture of isomers) [Compound 16] | 3.85
CCN1CC(Oc2ccc(C3c4ccc(O)cc4CC4(CC4)N3C(=O)c3ccccc3)cc2)C1 (stereo not drawn) [Compound 1] | 358
CCCN1CC(Oc2ccc(C3c4ccc(O)cc4CC4(CC4)N3C(=O)c3ccccc3)cc2)C1 (stereo not drawn) [Compound 2] | 130
O=C(c1ccccc1)N1C(c2ccc(OCCN3CCCCCC3)cc2)c2ccc(O)cc2CC12CC2 (stereo not drawn) [Compound 5] | 49.4
O=C(c1ccccc1)N1C(c2ccc(OCCN3CCCCC3)cc2)c2ccc(O)cc2CC12CC2 (stereo not drawn) [Compound 6] | 23.4
CCN1CCC(Oc2ccc(C3c4ccc(O)cc4CC4(CC4)N3C(=O)c3ccccc3)cc2)C1 (stereo not drawn) [Compound 12] | 58.8
CCN1CCC(CCOc2ccc(C3c4ccc(O)cc4CC4(CC4)N3C(=O)c3ccccc3)cc2)C1 (stereo not drawn) [Compound 13] | 21
CCCN1CCC(COc2ccc(C3c4ccc(O)cc4CC4(CC4)N3C(=O)c3ccccc3)cc2)C1 (stereo not drawn) [Compound 14] | 19
C[C@H]1CCN(CCOc2ccc(C3c4ccc(O)cc4CC4(CC4)N3C(=O)c3ccccc3)cc2)C1 (stereo partly drawn) [Compound 15] | 4.8
CN(C)CCOc1ccc(C2c3ccc(O)cc3CC3(CC3)N2C(=O)c2ccccc2)cc1 (stereo not drawn) [Compound 19] | 744
CNCCOc1ccc(C2c3ccc(O)cc3CC3(CC3)N2C(=O)c2ccccc2)cc1 (stereo not drawn) [Compound 20] | 500
CCNCCOc1ccc(C2c3ccc(O)cc3CC3(CC3)N2C(=O)c2ccccc2)cc1 (stereo not drawn) [Compound 21] | 222
CC1=C(c2ccc(O)cc2)[C@H](c2ccc(OCCN3CC[C@@H](C)C3)cc2)Oc2cc(O)ccc21 [OP1074, reference compound] | 0.17

These compounds were tested on halo-ERα (assay: ERα cellular stability, live-cell halo-ERα assay in T47D breast cancer cells). Conditions: 0 to 10 μM, 24 hours.
Format: cell-based
Experimental: T47D breast cancer cell lines were generated with stable Tet-ON wild type (WT), Y537S mutation, or D538G halo-ERα mutation and enriched through flow sorting. Cells were cultured for 48 hours in media supplemented with charcoal-stripped fetal bovine serum (FBS) in puromycin. Subsequently, 1 μg/mL doxycycline was added to induce expression and 1 μM G618 antibody was added to follow the expression of the halo-tagged proteins. Cells were then treated with increasing concentrations of a compound of interest between 0 and 10 μM for 24 hours. After treatment, cells were imaged using an INUCYTE™ S3 (Essen BioScience, Ann Arbor, MI). ERα degradation was quantified by using the red channel integrated intensity per image normalized to phase channel confluence area.
Tissue specific activities often correlate with a molecule's influence on ERα levels.

Compound | influence on ERα levels (SERM-like / SERD-like profile)
CCN1CC(Oc2ccc(C3c4ccc(O)cc4CC4(CC4)N3C(=O)c3ccccc3)cc2)C1 (stereo not drawn) [Compound 1] | weak SERD-like profile

Each compound was assayed on MCF7 breast cancer cells (assay: Crystal violet endpoint assay of MCF7 cellular viability). Conditions: 500 nM, in the presence of 1 nM E2, 1 week.
Format: cell-based
Source text: A crystal violet endpoint assay is useful for obtaining quantitative information about the relative density of cells adhering to multi-well cluster dishes. The crystal violet dye stains DNA. Upon solubilization, the amount of dye taken up by the monolayer can be quantified in a spectrophotometer or plate reader when the absorbance of each well is read at 570 nm. A crystal violet assay kit to measure cell viability is commercially available (e.g., Abcam, Cambridge, MA). All antagonist treatments were performed in the presence of 1 nM hormone (E2) for 1 week.

Compound | induction of apoptosis (cellular viability)
CCN1CCC(CCOc2ccc(C3c4ccc(O)cc4CC4(CC4)N3C(=O)c3ccccc3)cc2)C1 (stereo not drawn) [Compound 13] | appear to induce apoptosis
CCCN1CCC(COc2ccc(C3c4ccc(O)cc4CC4(CC4)N3C(=O)c3ccccc3)cc2)C1 (stereo not drawn) [Compound 14] | appear to induce apoptosis

Each compound was assayed on MCF7 breast cancer cells (assay: Cellular proliferation of MCF7 breast cancer cells, 150 hours). Conditions: 1 nM E2 + 1 μM compound, serum-starved 48 hours.
Format: cell-based
Experimental: The abilities of exemplary compounds of formula (I) to inhibit the cellular proliferation of MCF7 breast cancer cells were measured. Cells were serum-starved for 48 hours before they were treated with either vehicle (DMSO), 1 nM hormone (estradiol [E2]), or 1 nM E2+1 μM compound in triplicate for 150 hours.

Compound | anti-proliferative activities (fold-change in cell count versus starting cell count)
CC1Cc2cc(O)ccc2C(c2ccc(OCC3CCN(CCCF)C3)cc2)N1C(=O)c1ccccc1 [35(R)] | modestly reduced the anti-proliferative activities compared compound 29
CC1Cc2cc(O)ccc2C(c2ccc(OC[C@H]3CCN(CCCF)C3)cc2)N1C(=O)c1ccccc1 (stereo partly drawn) [35(S)] | modestly reduced the anti-proliferative activities compared compound 29
CCCN1CC(COc2ccc(C3c4ccc(O)cc4CC4(CC4)N3C(=O)c3ccccc3)cc2)C1 (stereo not drawn) [Compound 4] | improved anti-proliferative activities compared to an ethylazetidine
CCCCN1CCC(COc2ccc(C3c4ccc(O)cc4CC4(CC4)N3C(=O)c3ccccc3)cc2)C1 (stereo not drawn) [Compound 22] | did not enhance anti-proliferative activities compared to compound 14
CCCCCN1CCC(COc2ccc(C3c4ccc(O)cc4CC4(CC4)N3C(=O)c3ccccc3)cc2)C1 (stereo not drawn) [Compound 23] | did not enhance anti-proliferative activities compared to compound 14
CCCN1CCC(CCc2ccc(C3c4ccc(O)cc4CC4(CC4)N3C(=O)c3ccccc3)cc2)C1 (stereo not drawn) [Compound 24] | reduced anti-proliferative activities compared to compound 14
O=C(c1ccccc1)N1C(c2ccc(CCC3CCN(CCCF)C3)cc2)c2ccc(O)cc2CC12CC2 (stereo not drawn) [Compound 25] | reduced anti-proliferative activities compared to compound 14
CCCN1CCC(CNc2ccc(C3c4ccc(O)cc4CC4(CC4)N3C(=O)c3ccccc3)cc2)C1 (stereo not drawn) [Compound 26] | reduced anti-proliferative activities compared to compound 14
CCCN1CCC(CSc2ccc(C3c4ccc(O)cc4CC4(CC4)N3C(=O)c3ccccc3)cc2)C1 (stereo not drawn) [Compound 27] | did not show an appreciable difference in anti-proliferative activities compared to compound 14
O=C(c1ccccc1)N1C(c2ccc(OCC3CCN(CCCF)C3)cc2)c2ccc(O)cc2CC12CC2 (stereo not drawn) [Compound 29] | enhanced anti-proliferative activities
O=C(c1ccccc1)N1C(c2ccc(OCC3CCN(CCCF)C3)cc2)c2ccccc2CC12CC2 (stereo not drawn) [Compound 34] | ablated anti-proliferative activities
